Data as given in US10172909B2, “Neuropeptide analogs, compositions, and methods for treating pain” (NeuroAdjuvants, Inc., priority 2010, dated 2019).
Blank lines part the entries; values can stand above or below the molecule they belong to. Square brackets hold non-standard residues; d marks the D form. Ends that are not written are not given here. Peptide text beside a SMILES is read from it. * marks the point of attachment. MeO(CH2CH2O)23CH2CH2CO = COCCOCCOCCOCCOCCOCCOCCOCCOCCOCCOCCOCCOCCOCCOCCOCCOCCOCCOCCOCCOCCOCCOCCOCCC(=O)*; α‑Lnn = alpha-linolenic acid on Lys, CC/C=C\C/C=C\C/C=C\CCCCCCCC(=O)*; NMeW = CN[C@@H](Cc1c[nH]c2ccccc12)C(=O)O; MPEG24 = PEG24 on Lys (Lys-MPEG_24); Palmitoyl = CCCCCCCCCCCCCCCC(=O)*; MPEG4 = PEG4 on Lys (Lys-MPEG_4); Ahx = NCCCCCC(=O)O; Sar = CNCC(=O)O

Legend:
Sprague-Dawley rats = conditions: rat, in vivo, iv
mice = assay: formalin test of acute and chronic hyperalgesia in mice; assay type: in vivo; parameters: AUC Acute: unit not given beside the values; conditions: mouse formalin test; for AUC Acute / AUC Inflammatory: i.p., licking AUC as percentage of control AUC, mean ± S.E.M., n=8
Experimental: Gal-93 and other MEGylated analogs were tested using the formalin test of acute and chronic hyperalgesia in mice. The formalin test was performed according to the method described by Tjolsen et al. (Tjolsen A, Berge O G, Hunskaar S, Rosland J H, Hole K. The Formalin Test: An Evaluation of the Method. Pain 53(2), 237; 1992). More specifically, an injection of 0.5% formalin is made into the plantar region of the right hind paw of a mouse. This elicits a distinct behavioral profile in response to the formalin injection characterized by the mouse licking the affected paw. The behavior is characteristically biphasic in nature. For example, immediately following the injection the mouse intensely licks the paw for approximately 5-10 min. This initial behavior is considered phase 1 (acute) and is thought to be mediated primarily by chemical activation of local C-fibers. The acute phase is followed by a brief latent (usually <5 min) period where there is little or no behavioral activity. A more prolonged (about 20 to 30 min) period of licking then ensues which constitutes phase 2 of the response (inflammatory). Prior to the administration of the test drug or vehicle, each mouse undergoes a 15-min conditioning period in one of several 6″ tall plexiglass cages (4″ diameter) that are placed in front of a mirror. It is in these tubes that mice are observed for the licking activity for the duration of the experiment. Following conditioning, the test substance is dosed i.p. after which the mouse is returned to its home tube. At the TPE of the test substance, formalin is injected sub-dermally into the plantar surface of the right hind foot in a volume of 20 μl with a 27 gauge stainless steel needle attached to a Hamilton syringe. The bevel of the needle is placed facing down toward the skin surface.
The cumulative length of licking for each 2-min time period was recorded. An animal receiving the requisite volume of vehicle was alternated with each mouse given the test peptide. Area under the curve (AUC) and subsequent percent of control for drug-treated animal groups (n=8) was determined using the GraphPad Prism Version 3.03. Total AUC was calculated for both the test substance and control groups for both the acute and inflammatory phases. The AUC for individual animals for each phase was also calculated and converted to percentage of total AUC of control. The average and S.E.M. for both the drug treated and control percentages were then calculated and tested for significant differences.

HCT 30 min (Sprague-Dawley rats): 42 ± 2
HCT 60 min (Sprague-Dawley rats): 42 ± 1
Phenylephrine post-treatment response BP max (Sprague-Dawley rats): 161 ± 4
Phenylephrine post-treatment response HR min (Sprague-Dawley rats): 291 ± 26
glucose 30 min (Sprague-Dawley rats): 78 ± 5
glucose 60 min (Sprague-Dawley rats): 73 ± 4
plasma protein 30 min (Sprague-Dawley rats): 6.5 ± 0.4
plasma protein 60 min (Sprague-Dawley rats): 6.8 ± 0.3
temperature 30 min (Sprague-Dawley rats): 37.2 ± 0.2
temperature 60 min (Sprague-Dawley rats): 36.9 ± 0.4
Molecule: CC[C@H](C)[C@H](NC(=O)[C@H](Cc1ccc(O)cc1)NC(=O)[C@H](Cc1c[nH]cn1)NC(=O)[C@H](CCCNC(=N)N)NC(=O)[C@H](C)NC(=O)CCCCCNC(=O)[C@H](CCCCNC(=O)CCOCCOCCOCCOCCOCCOCCOCCOCCOCCOCCOCCOCCOCCOCCOCCOCCOCCOCCOCCOCCOCCOCCOCCOC)NC(=O)[C@H](CCCCN)NC(=O)[C@H](CCCCN)NC(=O)[C@H](Cc1ccc(O)cc1)NC(C)=O)C(=O)N[C@@H](CC(N)=O)C(=O)N[C@@H](CC(C)C)C(=O)N[C@H](C(=O)N[C@H](C(=O)N[C@@H](CCCNC(=N)N)C(=O)N[C@@H](CCC(N)=O)C(=O)N[C@@H](CCCNC(=N)N)C(=O)N[C@@H](Cc1ccc(O)cc1)C(N)=O)[C@@H](C)O)[C@@H](C)CC [NPY-B42] (Ac-YKKK(MeO(CH2CH2O)23CH2CH2CO)[Ahx]ARHYINLITRQRY-NH2)
difference from vehicle treated rats in any cardiovascular parameter measured (Sprague-Dawley rats): neither Gal-93 or NPY-B42 showed statistically significant difference from vehicle treated rats

Molecule: (N-Methyl-Trp)TLNSAGYLLGPKK(Lys-MPEG4)K-NH2 ([NMeW]TLNSAGYLLGPKKK(MPEG4)K-NH2) [Gal-104]
duration of licking, inflammatory phase (mice; result in words): significantly reduced

Molecule: (Sar)WTLNSAGYLLGPKK(Lys-Pal)K(Lys-MPEG24)-NH2 ([Sar]WTLNSAGYLLGPKKK(Palmitoyl)KK(MPEG24)-NH2) [Gal-81]
AUC Acute (mice): 19.7 ± 7.2
AUC Inflammatory (mice): 2.9 ± 2.2
duration of licking, acute phase (mice; result in words): significantly reduced
duration of licking, inflammatory phase (mice; result in words): significantly reduced

Molecule: (Sar)WTLNSAGYLLGPKK(Lys-α-Lnn)K(Lys-MPEG24)-NH2 ([Sar]WTLNSAGYLLGPKKK(α‑Lnn)KK(MPEG24)-NH2) [Gal-100]
AUC Acute (mice): 83.08 ± 13.34
AUC Inflammatory (mice): 33.78 ± 3.04
duration of licking, inflammatory phase (mice; result in words): significantly reduced

Molecule: WTLNSAGYLLGPKK(Lys-MPEG4)K-NH2 (WTLNSAGYLLGPKKK(MPEG4)K-NH2) [Gal-103]
AUC Acute (mice): 66.3 ± 14.6
AUC Inflammatory (mice): 75.6 ± 8.9
